Experiment [1] concerns Enterococcus faecalis. Briefly: Inhibitory activity against VanA strain of E. faecalis; Range is 0.03-2 ug/mL. It counts as functional.
Experiment [2] relates to Enterococcus faecium. As to the kind of experiment: Inhibitory activity against VanA strain of E. faecium; Range is 0.03-2 ug/mL. The class given is functional.
Experiment [3] relates to Staphylococcus aureus. Briefly: Inhibitory activity against MRSA. The class given is functional.
For experiment [4], the system named is Streptococcus pyogenes. Briefly: Inhibitory activity against Streptococcus pyogenes. It counts as functional.
Experiment [5] relates to Streptococcus pneumoniae. As to the kind of experiment: Inhibitory activity against Streptococcus pneumoniae. It counts as functional.
A short description of experiment [6]: Inhibitory activity against VanB enterococci; Range is 0.016-1 ug/mL. The class given is functional.
The test system of experiment [7] is Pseudomonas aeruginosa. Briefly: Antibacterial activity against Pseudomonas aeruginosa was determined; Active. The class given is functional, organism-based.
Experiment [8] has as its system Bacteroides fragilis. As to the kind of experiment: Inhibitory activity against Bacteroides fragilis. It counts as functional.
The subject of experiment [9] is Bacteria. As to the kind of experiment: Inhibitory activity against Corynebacterium. The class given is functional.
Experiment [10] concerns Enterococcus faecium. As to the kind of experiment: Inhibitory activity against Enterococcus faecium. It counts as functional.
In experiment [11] the test system is Haemophilus influenzae. As to the kind of experiment: Inhibitory activity against Haemophilus influenzae. The class given is functional.
Experiment [12] deals with Moraxella catarrhalis. As to the kind of experiment: Inhibitory activity against Moraxella catarrhalis. The class given is functional.
For experiment [13], the system named is Staphylococcus epidermidis. Briefly: Inhibitory activity against methicillin-resistant Staphylococcus epidermidis (MRSE). The class given is functional.
Experiment [14] has as its system Staphylococcus epidermidis. As to the kind of experiment: Inhibitory activity against methicillin-sensitive Staphylococcus epidermidis (MSSE). The class given is functional.
Experiment [15] deals with Staphylococcus aureus. As to the kind of experiment: Inhibitory activity against MSSA. It counts as functional.
For experiment [16], the system named is Enterococcus. As to the kind of experiment: Inhibitory activity against Vancomycin resistant enterococci. It counts as functional.
Experiment [17] in a line: Inhibitory activity against Lactobacillus species. The class given is functional. The note with it: Bacteria.
Experiment [18] is described as follows: Inhibitory activity against Leuconostoc species. It counts as functional.
The nature of experiment [19]: Inhibitory activity against Pediococcus species. It counts as functional.
Experiment [20] concerns Staphylococcus aureus. Briefly: Antibacterial activity against MRSA was determined; Active. The class given is functional, organism-based.

For orientation: MIC means the lowest concentration found to suppress growth. Higher therefore signals weaker potency.

Structures are written as SMILES. In brackets after ≈: the same amount, converted by molar mass. Activity calls are given as the source filed them. The rule behind the calls is not given here. Starred links: 1 amine or outer side, 2 acyl side, 3 side chain; linkers in the order of their positions; H or OH if unused. Positions of bridges follow the written chain, without caps; N, C: chain ends. Non-standard residues stand in square brackets, D forms with d. Residues, ends and D or L forms follow the SMILES beside them. X1 = O=C([C@@H](N[*:1])c1ccc(O[C@H]2OC(CO)[C@@H](O)[C@@H](O)[C@@H]2O[C@H]2O[C@@H](CO)[C@@H](O)[C@H](O)[C@H]2O)cc1)[*:2]; X4 = CC(C)CC/C=C\C=C/C(=O)NC(CC(N)=O)C(=O)CC(C(=O)[*:1])C(O[*:2])C(N)=O; X3 = CCC/C=C\C=C/C(=O)NC(CC(N)=O)C(=O)CC(C(=O)[*:1])C(O[*:2])C(N)=O; Hpg(3-Cl) = N[C@H](C(=O)O)c1ccc(O)c(Cl)c1; Hpg = N[C@H](C(=O)O)c1ccc(O)cc1; Orn = NCCC[C@H](N)C(=O)O Where only a bound is given, the exact number is not on record here.

Regarding `CCCCC1CCC(CN[C@@]2(C)C[C@@H](O[C@H]3[C@H](Oc4c5cc6cc4Oc4ccc(cc4Cl)[C@@H](C[C@H]4C[C@](C)(N)[C@@H](O)[C@H](C)O4)[C@]4(C)NC(=O)[C@H](NC(=O)[C@@H]6NC(=O)[C@H](CC(N)=O)NC(=O)[C@H](NC(=O)[C@@H](CC(C)C)NC)[C@H](O)c6ccc(c(Cl)c6)O5)c5ccc(O)c(c5)-c5c(O)cc(O)cc5[C@@H](C(=O)O)NC4=O)O[C@H](CO)[C@@H](O)[C@@H]3O)O[C@@H](C)[C@@H]2O)CC1` (stereo not given in full), the MIC in experiment [1] was 0.03 µg/mL (≈ 0.0171 µM); in experiment [2], 0.03 µg/mL (≈ 0.0171 µM); in [3], not above 0.5 µg/mL; in experiment [4], less than 0.06 µg/mL; in experiment [5], less than 0.008 µg/mL; in [6], 0.016 µg/mL (≈ 0.00911 µM).
On to `C[C@@H](O)[C@H]1C(=O)N2C(C(=O)O)=C(SCCNC=N)C[C@H]12`, for which the outcome in [7] was Active.
In [3], `CN(C)[C@@H]1C(=O)C(C(N)=O)=C(O)[C@@]2(O)C(=O)C3=C(O)c4c(O)cccc4[C@H](CSCCCCl)C3[C@H](O)C12` (stereo not given in full) came in with an MIC90 of 2 µg/mL (≈ 3.62 µM).
For `CC(=O)NC[C@H]1CN(c2ccc(N3CCN(C(=O)CO)CC3)c(F)c2)C(=O)O1` [EPEREZOLID], the MIC90 was found to be 16 µg/mL (≈ 40.6 µM) in [8]; 0.5 µg/mL (≈ 1.27 µM) in experiment [9]; 2 µg/mL (≈ 5.07 µM) in experiment [10]; 16 µg/mL (≈ 40.6 µM) in experiment [11]; 4 µg/mL (≈ 10.1 µM) in [12]; 1 µg/mL (≈ 2.54 µM) in [13]. Further, the MIC90 in [14] came to 1 µg/mL (≈ 2.54 µM); in experiment [3], 4 µg/mL (≈ 10.1 µM); in experiment [15] it was 4 µg/mL (≈ 10.1 µM); in experiment [4], 1 µg/mL (≈ 2.54 µM); in experiment [5], 0.5 µg/mL (≈ 1.27 µM).
Take `CCC/C=C\C=C/C(=O)NC(CC(N)=O)C(=O)CC1C(=O)N[C@@H](c2ccc(O)cc2)C(=O)N[C@@H](CCCN)C(=O)N[C@@H]([C@@H](C)O)C(=O)N[C@@H](c2ccc(O)cc2)C(=O)N[C@@H](c2ccc(O)cc2)C(=O)N[C@@H]([C@@H](C)O)C(=O)N[C@@H](Cc2ccccc2)C(=O)N[C@@H](CCCN)C(=O)N[C@@H](c2ccc(O[C@H]3OC(CO)[C@@H](O)[C@@H](O)[C@@H]3O[C@H]3O[C@@H](CO)[C@@H](O)[C@H](O)[C@H]3O)cc2)C(=O)N[C@@H]([C@@H](C)O)C(=O)N[C@@H](c2ccc(O)cc2)C(=O)NCC(=O)N[C@@H](CC(C)C)C(=O)N[C@@H](C)C(=O)N[C@@H](c2ccc(O)c(Cl)c2)C(=O)OC1C(N)=O` (stereo not given in full) ([Hpg][Orn]T[Hpg][Hpg]TF[Orn][X1]T[Hpg]GLA[Hpg(3-Cl)]; linker N-C via X3): the MIC90 is 0.5 µg/mL (≈ 0.197 µM) in [16], not above 0.25 µg/mL in experiment [17], not above 0.25 µg/mL in experiment [18] and not above 0.25 µg/mL in experiment [19].
`CC(C)CC/C=C\C=C/C(=O)NC(CC(N)=O)C(=O)CC1C(=O)N[C@@H](c2ccc(O)cc2)C(=O)N[C@@H](CCCN)C(=O)N[C@@H]([C@@H](C)O)C(=O)N[C@@H](c2ccc(O)cc2)C(=O)N[C@@H](c2ccc(O)cc2)C(=O)N[C@@H]([C@@H](C)O)C(=O)N[C@@H](Cc2ccccc2)C(=O)N[C@@H](CCCN)C(=O)N[C@@H](c2ccc(O[C@H]3OC(CO)[C@@H](O)[C@@H](O)[C@@H]3O[C@H]3O[C@@H](CO)[C@@H](O)[C@H](O)[C@H]3O)cc2)C(=O)N[C@@H]([C@@H](C)O)C(=O)N[C@@H](c2ccc(O)cc2)C(=O)NCC(=O)N[C@@H](CC(C)C)C(=O)N[C@@H](C)C(=O)N[C@@H](c2ccc(O)c(Cl)c2)C(=O)OC1C(N)=O` (stereo not given in full) ([Hpg][Orn]T[Hpg][Hpg]TF[Orn][X1]T[Hpg]GLA[Hpg(3-Cl)]; linker N-C via X4): the MIC90 is 0.5 µg/mL (≈ 0.195 µM) in experiment [16], not above 0.25 µg/mL in experiment [17], not above 0.25 µg/mL in experiment [18] and not above 0.25 µg/mL in experiment [19].
Consider `C[C@H](O)[C@H]1C(=O)N2C(C(=O)[O-])=C(Sc3nc(-c4cc[n+](CC(N)=O)cc4)cs3)[C@H](C)[C@H]12`, for which the result in experiment [20] was Active.
With `CN(C)c1ccc(O)c2c1C[C@H]1C[C@H]3[C@H](N(C)C)C(O)=C(C(N)=O)C(=O)[C@@]3(O)C(O)=C1C2=O` [MINOCYCLINE], in [3], the MIC90 is 16 µg/mL (≈ 35 µM).
Regarding `C[C@@H]1[C@H](NC(=O)/C(=N\OCc2cc3cc(O)c(O)cc3cc2C(=O)O)c2csc(N)n2)C(=O)N1S(=O)(=O)O`, the outcome in experiment [7] was Active.
